Measurements reported in patent US20130190299A1, “METHODS AND COMPOSITIONS FOR TREATMENT OF MULTIPLE SCLEROSIS” (Victoria Link Ltd., priority 2010, published 2013).

Key:
prolactin = test: Serum prolactin in treated mice; assay type: in vivo; details: for serum prolactin: immunized and unimmunized mice
[1] = Body weight of treated normal and immunized mice; details: for body weight in normal mice: normal (unimmunized) mice
[2] = system: bone marrow-derived macrophages; test: Bone marrow-derived macrophages treated in vitro with or without LPS; details: for macrophage viability (MTT dye reduction): presence or absence of LPS
Experimental: Identification of how risperidone alters pro-inflammatory and/or anti-inflammatory immune responses is necessary.
Studies were conducted herein to evaluate the regulation of macrophage proinflammatory responses in vitro.

EAE [3] = system: EAE
Experimental: FIG. 1A illustrates an exemplary treatment of C57BL/6 mice with risperidone (administered in drinking water; 3 mg/kg/day) following immunization to induce EAE with MOG (myelin oligodendrocyte glycoprotein) peptide in complete Freund's adjuvant. Disease score is based on the progressive ascending paralysis that characterizes EAE in this animal model where 0=normal and 5=complete body paralysis (i.e. moribund).
FIG. 1B illustrates an exemplary treatment of C57BL/6 mice with risperidone (administered in drinking water; 3 mg/kg/day) following immunization to induce EAE. The data is from 4 separate and independent experiments.
AUC was measured from days 0-26 and the results are from 4 separate and independent experiments.
In these preliminary studies risperidone was given in the drinking water at a calculated dose of 1 or 3 mg/kg/day.
Commonly this time period is between 13-20 days post immunization with myelin oligodendrocyte glycoprotein (50 μg/mouse) in complete Freund's adjuvant and injected i.p with pertussis toxin (200 ng/mouse) on days 0 and 2. Treatment during the “chronic” stage (when disease scores remain stable) may begin 30 days post immunization with myelin oligodendrocyte glycoprotein. For all of these studies, the optimal dose of risperidone may be used as determined by the experiments described above. […] This model is well established and has the added benefit of having many different immunological reagents available for use in the C57BL/6 system.

EAE [4] = test: EAE model in BALB/c mice immunized with PLP peptide
EAE [5] = test: EAE model in IL-4Ra-deficient BALB/c mice; assay type: in vivo; details: BALB/c mice deficient in IL-4Ra
[6] = system: splenic macrophages (F4/80+ cells); test: Activation markers on splenic macrophages of immunized mice at peak disease (flow cytometry); assay type: in vivo, C57BL/6 mice; details: risperidone 3 mg/kg/day
Experimental: Studies were also conducted herein to evaluate the regulation of macrophage proinflammatory responses in vivo.

cholinergic receptors = details: cited from earlier work
microglia = test: Microglial reactivity by Iba-1 expression in brains of immunized mice; assay type: in vivo
Experimental: FIG. 9A illustrates exemplary Iba-1 expression on microglia in the cerebellum of mice. […] Tissue samples were taken at peak disease (15 days post immunization). Shown are the scores for microglia reactivity (Iba score) and disease.
One group (risperidone d11) was immunized but only received risperidone treatment starting at day 11 (i.e. after disease onset). Scores for Iba-1 reactivity were assessed blinded and derived from a combined score for Iba intensity (0-3) and # Iba+ foci (0-3).
Scores for Iba-1 reactivity were assessed blinded and derived from a combined score (0-6) for Iba intensity (0-3) and number of Iba+ foci (0-3). Scores for the following brain regions were combined: cerebellum, brain stem, hippocampus, and olfactory bulb (0-24).
Scores for Iba-1 reactivity in the cerebellum were assessed blinded and derived from a combined score (0-6) for Iba intensity (0-3) and number of Iba+ foci (0-3).
Studies were performed to assess microglial reactivity via the expression of Iba-1 (FIG. 9A-F).

[7] = molecular target: dopaminergic D2 receptors (Homo sapiens, UniProt P14416); details: cited from earlier work
Chain of dopaminergic D2 receptors (P14416 whole entry): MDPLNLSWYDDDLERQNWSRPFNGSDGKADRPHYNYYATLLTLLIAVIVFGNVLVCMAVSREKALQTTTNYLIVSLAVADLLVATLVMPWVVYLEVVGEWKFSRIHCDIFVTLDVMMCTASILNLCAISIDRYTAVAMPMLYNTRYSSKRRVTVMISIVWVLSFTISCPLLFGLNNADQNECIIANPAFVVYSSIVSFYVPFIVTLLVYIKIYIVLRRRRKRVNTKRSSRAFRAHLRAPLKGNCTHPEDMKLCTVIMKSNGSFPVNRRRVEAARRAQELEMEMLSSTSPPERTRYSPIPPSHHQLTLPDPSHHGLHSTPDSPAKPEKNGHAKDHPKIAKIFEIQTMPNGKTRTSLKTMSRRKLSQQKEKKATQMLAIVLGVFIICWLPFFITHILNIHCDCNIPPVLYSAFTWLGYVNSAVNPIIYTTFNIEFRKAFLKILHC

[8] = system: auto-reactive T cell responses; test: Cytokine production and T cell proliferation in response to MOG antigen or ConA, cells from treated immunized mice; assay type: cell-based, C57BL/6 mice
Description: (§1) Shown are the mean and standard error of the mean (n=5 mice per group).
as §1, §1, §1, §1, §1
FIG. 5A illustrates exemplary antigen specific (L-17 production (pg/ml) in C57BL/6 mice, which were treated with risperidone or vehicle alone, and immunized to induce EAE 40 days earlier. Shown are the mean and standard error of the mean (n=5-10 mice per group).
FIG. 5B illustrates exemplary antigen specific interferon y production (pg/ml) in C57BL/6 mice, which were treated with risperidone or vehicle alone, and immunized to induce EAE 40 days earlier. Shown are the mean and standard error of the mean (n=5-10 mice per group).
FIG. 5C illustrates exemplary antigen specific IL-10 production (pg/ml) in C57BL/6 mice, which were treated with risperidone or vehicle alone, and immunized to induce EAE 40 days earlier. Shown are the mean and standard error of the mean (n=5-10 mice per group).
FIG. 5D illustrates exemplary T cell proliferation in counts per minute in immunized and normal C57BL/6 mice, which were treated with risperidone or vehicle alone. Shown are the mean and standard error of the mean (n=5-10 mice per group).
(§2) The effect of drug […] draining lymph node (LN) cells and splenocytes from untreated and risperidone-treated, immunized or unimmunized mice. Cytokine production in response to myelin oligodendrocyte glycoprotein antigen (MOG) can be assessed by cytokine bead assay, which measures 10 cytokines simultaneously, or ELISA, and proliferation can be measured by ^3H thymidine uptake. Cellular profiles in the spleen and lymph node cells can be determined by flow cytometric analysis and can include markers for helper T cells, T regulatory cells, and macrophages.

al-adrenergic receptors = details: cited from earlier work
[9] = Pajonk, 2004, cited from earlier work
α2-adrenergic receptors = details: cited from earlier work
splenocytes = test: Cellular profile of spleen in treated mice (flow cytometry); assay type: in vivo, C57BL/6 mice
Description: as §2, with “drug treatment on antigen-specific immune responses can be determined at 8 (pre-onset),” for “drug”

[10] = system: bone marrow-derived macrophages; details: positive control; La Flamme, unpublished results; cited from earlier work
[11] = 20 μg/ml risperidone or 10 μ/ml clozapine
[12] = chronic stage, 40 days post immunization
[13] = peak disease, 21 days post immunization
[14] = 20 μg/ml risperidone or 10 μ/ml clozapine, versus vehicle-treated macrophages
[15] = chronic stage of disease, 40 days after immunization

For `CN1CCN(C2=Nc3cc(Cl)ccc3Nc3ccccc32)CC1` [clozapine], which serum prolactin (prolactin) is on record?
Its serum prolactin is “not observed”.

What about the “body weight in normal mice” value [1] of the same compound?
The value was “promotes weight gain”.

What about the “macrophage viability (MTT dye reduction)” value [2, 11] of the same compound?
The value was “fully viable”.

What does the source list for `Cc1nc2n(c(=O)c1CCN1CCC(c3noc4cc(F)ccc34)CC1)CCCC2` [risperidone, 3-[2-[4-(6-fluoro-1,2-benzisoxazol-3-yl)-1-piperidinyl]ethyl]-6,7,8,9-tetrahydro-2-methyl-4H-pyrido[1,2-a]pyrimidin-4-one]?
protective effect in dose-response (EAE [3]; 3 mg/kg/day, p<0.0001 by 2-way ANOVA): significant protective effect; area under the curve (AUC), total disease burden (EAE [3]; AUC of disease score, risperidone days 0-26, 4 independent experiments): reduction; average disease score during the chronic stage (EAE [3]; drinking water from one day before immunization): stable reduction; detrimental effects on the mice (EAE [3]; risperidone 1 or 3 mg/kg/day, immunized or unimmunized mice, aside from slight weight gain): no detrimental effects; efficacy of higher versus lower dose (EAE [3]; risperidone 3 vs 1 mg/kg/day, clozapine 30 vs 15 mg/kg/day): 3 mg/kg/day is more effective; time of onset or incidence of EAE (EAE [3]; risperidone daily from the time of immunization): does not alter; % incidence (EAE [4]; 2 independent experiments, same for vehicle group): 73%; disease severity (EAE [4]; oral, from one day before immunization with PLP): significantly reduced disease severity; reduction in disease symptoms (EAE [5]): do not experience a reduction in disease symptoms; % incidence versus vehicle (EAE [5]; 2 independent experiments): no difference in % incidence; CD40 expression on splenic macrophages [6]: reduced CD40 expression; number of CD40-expressing splenic macrophages [6]: not reduced; MHC class II expression on splenic macrophages ([6]; clozapine 30 mg/kg/day, versus vehicle-treated immunized mice): reduced MHC class II expression; affinity for cholinergic receptors (cholinergic receptors): no affinity; microglial reactivity (Iba-1 expression) (microglia; immunized mice, peak disease (15 days post immunization), cerebellum, brain stem, hippocampus, olfactory bulb): greatly reduced; microglial reactivity (Iba-1 expression), treatment after disease onset (microglia; treatment starting at day 11 post-immunization, assessed on day 15): reduces microglial reactivity; serum prolactin (hyperprolactinemia) (prolactin; BALB/c mice): develop hyperprolactinemia; serum/plasma prolactin (hyperprolactinemia) (prolactin; IL-4Ra-deficient BALB/c mice): develop hyperprolactinemia; serum prolactin (prolactin): high levels of serum prolactin; weight loss associated with EAE ([1]; mice immunized with MOG peptide): reduce the weight loss; body weight in normal mice [1]: promotes weight gain; affinity for dopaminergic D2 receptors [7]: high affinity; production of IL-10 with polyclonal stimulus (ConA) ([8]; 21 days post immunization): no alteration; production of INF-γ with polyclonal stimulus (ConA) ([8]; 21 days post immunization): no alteration; MOG specific IFN-γ production [8, 12]: enhance; MOG-specific IL-10 production [8, 12]: no effect; MOG-specific IL-17 production [8, 12]: no effect; MOG-specific proliferation [8, 12]: no effect; production of IFN-γ in response to MOG antigen [8, 13]: does not alter; production of IL-10 in response to MOG antigen [8, 13]: significantly reduce; production of IL-17 in response to MOG antigen [8, 13]: significantly reduce; binding to al-adrenergic receptors (al-adrenergic receptors): binds; maximum tolerated dose in mice [9]: unable to identify a maximum tolerated dose; toxicity ([9]; mice treated daily with doses up to 10 mg/kg/day for 18 months): no toxicity; macrophage viability (MTT dye reduction) [2, 11]: fully viable; IL-12 production in response to LPS [2, 14]: produce less; NO production in response to LPS [2, 14]: produce less; IL-10 production in response to LPS ([2]; risperidone 20 μg/ml, versus vehicle-treated macrophages): produce more; affinity for α2-adrenergic receptors (α2-adrenergic receptors): lower affinity; number of helper T cells (CD4+CD25−) in the spleen (splenocytes; [15]): does not alter; number of neutrophils (Gr1+ cells) in the spleen (splenocytes; [15]): reduce; number of regulatory T cells (CD4+CD25+ Treg) in the spleen (splenocytes; [15]): enhance; overall immune cells in the spleen (total splenocyte numbers) (splenocytes; peak disease (day 21), risperidone 3 mg/kg/day, clozapine 30 mg/kg/day, unimmunized and immunized mice): does not result in overall loss

For Glatiramer acetate, which “pro-inflammatory (IL-12) cytokine production by LPS-stimulated macrophages” value [10] is on record?
The value was “reduce”.
